# Test system: yeast strain YM 4271 transformed with pHISi3xE2Fwt
# Assay: Growth of pHISi3xE2Fwt-transformed yeast colonies on histidine-free minimal medium agar with increasing 3-aminotriazole
# Format: cell-based
# Conditions: no histidine
# Procedure: 1 μg of pHISi3xE2Fwt was completely linearized with 10 U of XhoI for 1 hour, purified using the QiaQuick PCR Purification Kit (Qiagen/Hilden, Germany) according to the manufacturer's instructions and taken up in 50 μl of water. […] This culture was incubated with shaking at 30° C. until an optical density of 0.4-0.6 at 600 nm was reached. The culture was then removed by centrifugation at 1000× g for 5 minutes, and the cells were taken up in 1.5 ml of 100 mM lithium acetate pH 7.5, 10 mM Tris-HCl pH 7.5, 1 mM EDTA. 100 μl of said cells, 50 μl of the linearized plasmid and 100 μg of heat-denatured salmon sperm DNA were admixed with 600 μl of a PEG/LiAc solution (100 mM lithium acetate pH 7.5, 10 mM Tris-HCl pH 7.5, 1 mM EDTA, 40% (w/v) polyethylene glycol 4000) and incubated with shaking at 30° C. for 30 min. After adding 70 μl of dimethyl sulfoxide, the mixture was incubated at 42° C. for 15 min. The cells were subsequently removed by centrifugation, washed in 1 ml of 10 mM Tris-HCl pH 7.5, 1 mM EDTA and plated out in their entirety on a minimal medium agar plate without addition of histidine, on which 12 colonies had grown after 7 days at 30° C.
compound,measurement,setting,value
Nc1nc[nH]n1 [3-aminotriazole],3-AT concentration at which growth was completely suppressed,one clone (yeast3xE2Fwt),2 mM
same,3-AT concentration at which growth was suppressed markedly,one clone (yeast3xE2Fwt),0.5 mM
same,3-AT concentration at which growth was inhibited,remaining 10 clones,> 30 mM
same,3-AT concentration at which clones did not grow any more,this clone and another clone,3 mM

# — patent US20040072180A1, “Dna binding peptide domains and a method for providing domains of this type” (priority 2000, published 2004)
